Here are results for 8 compounds from patent US10913746B2, “Substituted 4-phenylpiperidines, their preparation and use” (The Trustees of Columbia University in the City of New York, priority 2014, dated 2021).

Molecules are shown by their SMILES. Structures can show the parent of a compound that is named as a salt.

One assay has as its system Abca4−/− mouse model. The assay is described as follows: Bisretinoid accumulation in Abca4−/− mouse model. As to conditions: Example 112, present tense; 25 mg/kg for 12 weeks, mice starting at 17 weeks old. It is filed as in vivo. Here is the method:
(§1) Abca4−/− mice have A2E levels in the ˜15-19 pmoles/eye range at 17 weeks old. Mice, starting at 17 weeks old, were treated with 25 mg/kg of Compound 81 for 12 weeks.

Another assay deals with serum RBP4 (Mus musculus (Mouse), UniProt Q00724). Description: Serum RBP4 levels in Abca4−/− mice. The assay is classed as in vivo. The note with it: Example 112, present tense; 25 mg/kg for 12 weeks, mice starting at 17 weeks old. How it is done: as §1
Assay [1] relates to subject afflicted with AMD or Stargardt disease. Description: Administration to the eye of a subject afflicted with AMD or Stargardt disease. As to conditions: Example 113, present tense; administered to the eye. The assay is classed as in vivo. How it is done:
An amount of a compound 81 is administered to the eye of a subject afflicted with AMD.
An amount of a compound 81 is administered to the eye of a subject afflicted with Stargardt disease.

Another assay concerns the target RBP4 (Homo sapiens (Human), UniProt P02753). The note with it: cited from earlier work.

For the compound `O=C(c1n[nH]c2c1CCNC2)N1CCC(c2cccc(F)c2C(F)(F)F)CC1` [Compound 30, (4-(3-Fluoro-2-(trifluoromethyl)phenyl)piperidin-1-yl)(4,5,6,7-tetrahydro-1H-pyrazolo[3,4-c]pyridin-3-yl)methanone Hydrochloride], the “bisretinoid accumulation in Abca4−/− mouse model” value (“bisretinoid accumulation” for short) with Abca4−/− mouse model is “inhibit bisretinoid accumulation”. In addition, the “serum RBP4 reduction” value on serum RBP4 is “significant serum RBP4 reduction”.

Consider `O=C(c1n[nH]c2c1CCNC2)N1CCC(c2ccc(F)c(F)c2C(F)(F)F)CC1` [Compound 34], for which the “bisretinoid accumulation” value in the assay with Abca4−/− mouse model is given as “inhibit bisretinoid accumulation”. Further, at serum RBP4, the “serum RBP4 reduction” value was “significant serum RBP4 reduction”.

Take `O=C(c1n[nH]c2c1CNCC2)N1CCC(c2ccc(F)c(F)c2C(F)(F)F)CC1` [Compound 36, (4-(3,4-Difluoro-2-(trifluoromethyl)phenyl)piperidin-1-yl)(4,5,6,7-tetrahydro-1H-pyrazolo[4,3-c]pyridin-3-yl)methanone Trifluoroacetic Acid Salt]: the “bisretinoid accumulation” value with Abca4−/− mouse model is listed as “inhibit bisretinoid accumulation”. Moreover, the “serum RBP4 reduction” value on serum RBP4 is given as “significant serum RBP4 reduction”.

`O=C(c1n[nH]c2c1CNC2)N1CCC(c2ccc(F)c(F)c2C(F)(F)F)CC1` [Compound 38, (4-(3,4-Difluoro-2-(trifluoromethyl)phenyl)piperidin-1-yl)(1,4,5,6-tetrahydropyrrolo[3,4-c]pyrazol-3-yl)methanone Hydrochloride]: the “bisretinoid accumulation” value in the assay with Abca4−/− mouse model is “inhibit bisretinoid accumulation”. In addition, the “serum RBP4 reduction” value on serum RBP4 was “significant serum RBP4 reduction”.

Take `O=C(c1n[nH]c2c1CCNC2)N1CCC(c2cccc(F)c2Cl)CC1` [Compound 40, (4-(2-Chloro-3-fluorophenyl)piperidin-1-yl)(4,5,6,7-tetrahydro-1Hpyrazolo[3,4-c]pyridin-3-yl)methanone Hydrochloride]: the “bisretinoid accumulation” value in the assay with Abca4−/− mouse model was “inhibit bisretinoid accumulation”. Moreover, at serum RBP4, the “serum RBP4 reduction” value is “significant serum RBP4 reduction”.

For the compound `O=C(c1n[nH]c2c1CNCC2)N1CCC(c2cccc(F)c2Cl)CC1` [Compound 42, (4-(2-Chloro-3-fluorophenyl)piperidin-1-yl)(4,5,6,7-tetrahydro-1Hpyrazolo[4,3-c]pyridin-3-yl)methanone Hydrochloride], the “bisretinoid accumulation” value in the assay on Abca4−/− mouse model was “inhibit bisretinoid accumulation”. Also, the “serum RBP4 reduction” value on serum RBP4 was “significant serum RBP4 reduction”.

In the case of `CC(=O)N1CCc2c(C(=O)N3CCC(c4ccc(F)c(F)c4C(F)(F)F)CC3)n[nH]c2C1` [Compound 81, 1-(3-(4-(3,4-Difluoro-2-(trifluoromethyl)phenyl)piperidine-1-carbonyl)-4,5-dihydro-1H-pyrazolo[3,4-c]pyridin-6(7H)-yl)ethanone], in assay [1], the “treatment of subject afflicted with AMD” value is recorded as “effective to treat the subject” and the “treatment of subject afflicted with Stargardt disease” value is recorded as “effective to treat the subject”.

On to `CC1=C(/C=C/C(C)=C/C=C/C(C)=C/C(=O)Nc2ccc(O)cc2)C(C)(C)CCC1` [fenretinide, N-(4-hydroxy-phenyl)retinamide], for which the “binding to RBP4, displacement of all-trans retinol” value on RBP4 was “bind to RBP4”.
